Source: patent publication US11242337B2, “Compounds useful for treating gastrointestinal tract disorders” (Ardelyx, Inc., priority 2017, dated 2022)
Where two headings read alike, the source gives them in different places.

Columns and labels:
[1] = system: absorption of sodium from the intestinal lumen; test: Inhibition of intestinal sodium absorption in mice; type: in vivo; conditions: CD-1 mice, 15 mg/kg oral gavage twice daily; for Fecal fluid content (Δ from vehicle): day 3, change from vehicle group mean; for response vs control in vivo at 15 mg/kg: Mus musculus, 72 h, day 3, normalized to dietary sodium intake
How it was run: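 Male ~8-week CD-1 mice on chow with added 0.4% inorganic phosphorous, in metabolic cages after 3-day acclimation and 24-hr baseline collection. Urine sodium by ion chromatography, dried fecal sodium by MP-AES; day-3 24-hour excretion normalized to dietary sodium intake and expressed as % of vehicle mean; diarrhea and fecal fluid also recorded.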

[2] = system: human ileum monolayer culture; test: Sustained inhibition of apical acid secretion in human organoid monolayer cell cultures (ileum); type: cell-based; conditions: Homo sapiens, 48 h; 1 μM apical, dosed day 6, apical media pH day 8, vs DMSO
How it was run: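 Human ileum organoid-derived Transwell monolayers, differentiated with ENRA from day 3, received 1 μM compound apically on day 6 (DMSO vehicle, duplicate wells). Apical medium pH was measured by electrode on day 8 as a readout of sustained NHE3-mediated proton secretion inhibition.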

[3] = read-out: Fecal Na Excretion (% of vehicle)
[4] = read-out: Urinary Na Excretion (% of vehicle)

N#Cc1cc(Cl)cc2c1C[C@H](N1CCNCC1)[C@H]2Oc1ccc(S(=O)(=O)NCCOCCOCCNC(=O)NCCCCNC(=O)NCCOCCOCCNS(=O)(=O)c2ccc(O[C@H]3c4cc(Cl)cc(C#N)c4C[C@@H]3N3CCNCC3)c(F)c2)cc1F [Example 43, 3-[2-(2-[2-[(4-[[(1S,2S)-6-Chloro-4-cyano-2-(piperazin-1-yl)-2,3-dihydro-1H-inden-1-yl]oxy]-3-fluorobenzene)sulfonamido]ethoxy]ethoxy)ethyl]-1-[4-([[2-(2-[2-[(4-[[(1S,2S)-6-chloro-4-cyano-2-(piperazin-1-yl)-2,3-dihydro-1H-inden-1-yl]oxy]-3-fluorobenzene)sulfonamido]ethoxy]ethoxy)ethyl]carbamoyl]amino)butyl]urea; bis(trifluoroacetic acid)]
Fecal fluid content (Δ from vehicle) [1]: C (>10)
response vs control in vivo at 15 mg/kg [1, 3]: > 200%
response vs control in vivo at 15 mg/kg [1, 4]: < 50%
inhibition at 1 µM [2]: 50 to 70%

Cc1cc(S(=O)(=O)N2CC[C@@H](COCCOCCNC(=O)NCCCCNC(=O)NCCOCCOC[C@@H]3CCN(S(=O)(=O)c4ccc(O[C@H]5c6cc(Cl)cc(Cl)c6C[C@@H]5N(C)C)c(C)c4)C3)C2)ccc1O[C@H]1c2cc(Cl)cc(Cl)c2C[C@@H]1N(C)C [Example 45, 3-[2-(2-[[(3R)-1-[(4-[[(1S,2S)-4,6-Dichloro-2-(dimethylamino)-2,3-dihydro-1H-inden-1-yl]oxy]-3-methylbenzene)sulfonyl]pyrrolidin-3-yl]methoxy]ethoxy)ethyl]-1-[4-([[2-(2[[(3R)-1-[(4-[[(1S,2S)-4,6-dichloro-2-(dimethylamino)-2,3-dihydro-1H-inden-1-yl]oxy]-3-methylbenzene)sulfonyl]pyrrolidin-3-yl]methoxy]ethoxy)ethyl]carbamoyl]amino)butyl]urea; bis(trifluoroacetic acid)]
Fecal fluid content (Δ from vehicle) [1]: A (<5)
response vs control in vivo at 15 mg/kg [1, 3]: < 150%
response vs control in vivo at 15 mg/kg [1, 4]: > 70%
inhibition at 1 µM [2]: 50 to 70%

O=C(NCCCCNC(=O)NCCOCCOCCNS(=O)(=O)c1ccc(O[C@H]2c3cc(Cl)cc(Cl)c3C[C@@H]2N2CCNCC2)c(F)c1)NCCOCCOCCNS(=O)(=O)c1ccc(O[C@H]2c3cc(Cl)cc(Cl)c3C[C@@H]2N2CCNCC2)c(F)c1 [Example 33, 3-[2-(2-[2-[(4-[[(1S,2S)-4,6-Dichloro-2-(piperazin-1-yl)-2,3-dihydro-1H-inden-1-yl]oxy]-3-fluorobenzene)sulfonamido]ethoxy]ethoxy)ethyl]-1-[4-[[(2-(2-[2-[(4-[[(1S,2S)-4,6-dichloro-2-(piperazin-1-yl)-2,3-dihydro-1H-inden-1-y]oxy]-3-fluorobenzene)sulfonamido]ethoxy]ethoxy)ethyl]carbamoyl]amino)butyl]urea; bis(trifluoroacetic acid)]
Fecal fluid content (Δ from vehicle) [1]: C (>10)
response vs control in vivo at 15 mg/kg [1, 3]: > 200%
response vs control in vivo at 15 mg/kg [1, 4]: < 50%
inhibition at 1 µM [2]: > 70%

N#Cc1cc(Cl)cc2c1C[C@H](N1CCNCC1)[C@H]2Oc1ccc(S(=O)(=O)NCCOCCOCCNC(=O)NCCCCNC(=O)NCCOCCOCCNS(=O)(=O)c2ccc(O[C@H]3c4cc(Cl)cc(C#N)c4C[C@@H]3N3CCNCC3)cc2)cc1 [Example 41, 3-[2-(2-[2-[(4-[[(1S,2S)-6-Chloro-4-cyano-2-(piperazin-1-yl)-2,3-dihydro-1H-inden-1-yl]oxy]benzene)sulfonamido]ethoxy]ethoxy)ethyl]-1-[4-([[2-(2-[2-[(4-[[(1S,2S)-6-chloro-4-cyano-2-(piperazin-1-yl)-2,3-dihydro-1H-inden-1-yl]oxy]benzene)sulfonamido]ethoxy]ethoxy)ethyl]carbamoyl]amino)butyl]urea; bis(trifluoroacetic acid)]
Fecal fluid content (Δ from vehicle) [1]: B (5-10)
response vs control in vivo at 15 mg/kg [1, 3]: > 200%
response vs control in vivo at 15 mg/kg [1, 4]: < 50%
inhibition at 1 µM [2]: 50 to 70%

O=C(NCCCCNC(=O)NCCOCCOCCNS(=O)(=O)c1ccc(O[C@H]2c3cc(Cl)cc(Cl)c3C[C@@H]2N2CCNCC2)cc1)NCCOCCOCCNS(=O)(=O)c1ccc(O[C@H]2c3cc(Cl)cc(Cl)c3C[C@@H]2N2CCNCC2)cc1 [Example 31, 3-[2-(2-[2-[(4-[[(1S,2S)-4,6-Dichloro-2-(piperazin-1-yl)-2,3-dihydro-1H-inden-1-yl]oxy]benzene)sulfonamido]ethoxy]ethoxy)ethyl]-1-[4-([[2-(2-[2-[(4-[[(1S,2S)-4,6-dichloro-2-(piperazin-1-yl)-2,3-dihydro-1H-inden-1-yl]oxy]benzene)sulfonamido]ethoxy]ethoxy)ethyl]carbamoyl]amino)butyl]urea; bis(trifluoroacetic acid)]
Fecal fluid content (Δ from vehicle) [1]: B (5-10)
response vs control in vivo at 15 mg/kg [1, 3]: > 200%
response vs control in vivo at 15 mg/kg [1, 4]: 50 to 70%
inhibition at 1 µM [2]: > 70%

Cc1cc(S(=O)(=O)NCCOCCOCCNC(=O)NCCCCNC(=O)NCCOCCOCCNS(=O)(=O)c2ccc(O[C@H]3c4cc(Cl)cc(Cl)c4C[C@@H]3N3CCC[C@@H](N(C)C)C3)c(C)c2)ccc1O[C@H]1c2cc(Cl)cc(Cl)c2C[C@@H]1N1CCC[C@@H](N(C)C)C1 [Example 26, 3-[2-(2-[2-[(4-[[(1S,2S)-4,6-Dichloro-2-[(3R)-3-(dimethylamino)piperidin-1-yl]-2,3-dihydro-1H-inden-1-yl]oxy]-3-methylbenzene)sulfonamido]ethoxy]ethoxy)ethyl]-1-[4-([[2-(2-[2-[4-[[(1S,2S)-4,6-dichloro-2-[(3R)-3-(dimethylamino)piperidin-1-yl]-2,3-dihydro-1H-inden-1-yl]oxy]-3-methylbenzenesulfonamido]ethoxy]ethoxy)ethyl]carbamoyl]amino)butyl]urea; bis(trifluoroacetic acid)]
Fecal fluid content (Δ from vehicle) [1]: B (5-10)
response vs control in vivo at 15 mg/kg [1, 3]: 150 to 200%
response vs control in vivo at 15 mg/kg [1, 4]: 50 to 70%
inhibition at 1 µM [2]: 50 to 70%

CN(C)[C@H]1Cc2c(Cl)cc(Cl)cc2[C@@H]1Oc1ccc(S(=O)(=O)NCCOCCOCCNC(=O)NCCCCNC(=O)NCCOCCOCCNS(=O)(=O)c2ccc(O[C@H]3c4cc(Cl)cc(Cl)c4C[C@@H]3N(C)C)c(F)c2)cc1F [Example 23, 3-[2-(2-[2-[(4-[[(1S,2S)-4,6-Dichloro-2-(dimethylamino)-2,3-dihydro-1H-inden-1-yl]oxy]-3-fluorobenzene)sulfonamido]ethoxy]ethoxy)ethyl]-1-[4-([[2-(2-[2-[(4-[[(1S,2S)-4,6-dichloro-2-(dimethylamino)-2,3-dihydro-1H-inden-1-yl]oxy]-3-fluorobenzene)sulfonamido]ethoxy]ethoxy)ethyl]carbamoyl]amino)butyl]urea; bis(trifluoroacetic acid)]
Fecal fluid content (Δ from vehicle) [1]: B (5-10)
response vs control in vivo at 15 mg/kg [1, 3]: 150 to 200%
response vs control in vivo at 15 mg/kg [1, 4]: 50 to 70%
inhibition at 1 µM [2]: 50 to 70%

Cc1cc(S(=O)(=O)N[C@H]2CCN(CCOCCNC(=O)NCCCCNC(=O)NCCOCCN3CC[C@H](NS(=O)(=O)c4ccc(O[C@H]5c6cc(Cl)cc(Cl)c6C[C@@H]5N(C)C)c(C)c4)C3)C2)ccc1O[C@H]1c2cc(Cl)cc(Cl)c2C[C@@H]1N(C)C [Example 52, 3-(2-[2-[(3S)-3-[(4-[[(1S,2S)-4,6-Dichloro-2-(dimethylamino)-2,3-dihydro-1H-inden-1-yl]oxy]-3-methylbenzene)sulfonamido]pyrrolidin-1-yl]ethoxy]ethyl)-1-(4-[[(2-[2-[(3S)-3-[(4-[[(1S,2S)-4,6-dichloro-2-(dimethylamino)-2,3-dihydro-1H-inden-1-yl]oxy]-3-methylbenzene)sulfonamido]pyrrolidin-1-yl]ethoxy]ethyl)carbamoyl]amino]butyl)urea]
Fecal fluid content (Δ from vehicle) [1]: B (5-10)
response vs control in vivo at 15 mg/kg [1, 3]: > 200%
response vs control in vivo at 15 mg/kg [1, 4]: 50 to 70%
inhibition at 1 µM [2]: > 70%
